From US10004222B2, “Small molecule ice recrystallization inhibitors and methods of use thereof” (THE UNIVERSITY OF OTTAWA, priority 2012, dated 2018)
Values joined by “and” are separate entries in the source; they are usually repeats but may differ in a detail not shown here. Identical values can stand only once.

Assays:
[1] = test system: CD34+ cells (hematopoietic stem cells); assay: colony forming unit (CFU) assay after cryopreservation of umbilical cord blood; assay type: cell-based, human; conditions: for BFU-E / CFU-G / CFU-GEMM / CFU-GM / CFU-M / Total Number of Colonies: 10% DMSO, post-thaw, 14 days in Methocult; for combined results of the CFU assays vs control: UCB units 26, 27, 28 combined, FIG. 41
Protocol: Aliquots of LC (50,000 CD34^+ cells) are added to 2.0 mL cryovials. For each experiment, four cryovials are prepared (two for post-thaw viability analysis using flow cytometry and two for functionality analysis using the colony forming unit assay). Cryovials are kept on ice until placement in −80° C. freezer. Cryovials are centrifuged at 400 g and 10° C. for 5 minutes to pellet cells. After centrifugation, the time taken until placement in −80° C. freezer should not exceed 10 minutes. Supernatant is removed by aspiration or by decanting, but preferably by aspiration. Plasma (volume depends on desired cryosolution concentration) is added and cells are suspended by pipetting. Pre-made cryosolutions (see Cryosolutions) are added (volume depends on desired cryosolution concentration) and mixed by pipetting. Cryovials are placed in a Mr. Frosty® rate controlled freezing container which is then placed in a −80° C. freezer for 24 hours. By placing the cryovials in the freezing container, their contents undergo a cooling rate of about −1° C. per minute. After 24 hours, the cryovials are transferred to a liquid nitrogen dewar for storage until thawed for analysis.
Cryosolutions are prepared in distilled autoclaved water supplemented with 0.9% saline and 5% dextran for cryopreservation experiments and diluted with different volumes of plasma in cryovials depending on desired concentration of ice recrystallization inhibitor. N-(4-chlorophenyl)-D-gluconamide (4a) and N-(2-fluorophenyl)-D-gluconamide (2a) are prepared at 25 mM and N-(4-methoxyphenyl)-D-gluconamide (3a) and N-(2,6-difluorobenzyl)-D-gluconamide (1b) are prepared at 55 mM. 100, 50, 33 or 20 μL of 25 mM N-(4-chlorophenyl)-D-gluconamide (4a) or N-(2-fluorophenyl)-D-gluconamide (2a) are added to cryovials containing 50,000 CD34^+ cells suspended in 0, 50, 67, or 80 μL of plasma, respectively, for a final IRI concentration of 25, 12.5, 8 or 5 mM, respectively. 100, 50, 33 or 20 μL of 55 mM N-(4-methoxyphenyl)-D-gluconamide (3a) or N-(2,6-difluorobenzyl)-D-gluconamide (1b) are added to cryovials containing 50,000 CD34^+ cells suspended in 0, 50, 67, or 80 μL of plasma, respectively, for a final IRI concentration of […], 18 or 11 mM, respectively.
Cryovials are thawed in a 37° C. water bath and diluted with 900 μL of IMDM (10% FBS, 1% penicillin/streptomycin). Cryovials are placed on ice until washed. Samples are mixed by pipetting and 80 μL is transferred to a 15 mL Falcon tube. 5 mL of Iscove's Modified Dulbecco's Medium (IMDM) supplemented with 10% fetal bovine serum (FBS) is added and this mixture is centrifuged at 1100 rpm for six minutes to yield a cell pellet and a supernatant. The supernatant is removed by aspiration and the cell pellet is resuspended in 1 mL IMDM (2% FBS) to form a suspension. The suspension is mixed by pipetting. 150 μL of this cell suspension is added to 3 mL Methocult™ media and plating is performed in accordance with manufacturer's instruction. The suspension with Methocult™ media is mixed adequately by vortexing for 20 seconds. The contents are allowed to settle and bubbles are allowed to subside before plating (approximately 5-10 minutes). Using a 3 mL syringe and 16 gauge blunt needles, 2.5 mL of the cell suspension in Methocult™ is taken from the bottom. 1 mL of this 2.5 mL is added to two 5 mL cell culture dishes. The dishes are swirled to ensure cells in Methocult™ medium coat the entire bottom of the dish. A third 5 mL dish is prepared to contain distilled autoclaved water without a lid. These three 5 mL dishes are placed in a 100 mL plate; two 5 mL dishes contain 1 mL of cell suspension in Methocult™ medium with the lid on and one containing distilled autoclaved water with the lid off. The lid is placed on the 100 mL plate and stored in a 37° C. incubator (5% CO2) for two weeks.

[2] = test system: CD34+ cells (hematopoietic stem cells); assay: as above; assay type: cell-based, human; conditions: 27.5 mM IRI, 10% DMSO; post-thaw, 14 days in Methocult
Tf1-α cells = assay: cryopreservation of Tf1-α cells, viability/apoptosis by flow cytometry (7-AAD, Annexin V); assay type: cell-based; conditions: 55 mM aryl-aldonamide, post-thaw
Protocol: Tf1-α cells were cultured to a final concentration of 2-3×10^6 cells/mL. Three million cells were transferred into cryovials and media were removed by aspiration after centrifugation at 1000 rpm for five minutes. 100 μL of RPMI media (10% FBS) supplemented with the cryopreservative of interest was added to the cryovial and vortexed. The cryovials were cooled at a rate of −1° C./min for 24 hours to −80° C. before being transferred to a liquid nitrogen dewar for storage until analysis.
Cryovials were thawed under fast thaw conditions (submerged in 37° C. water bath). The cells were then diluted to a concentration of 3×10^6 cells/mL with 1× Annexin V Binding Buffer and a cell count was obtained by hemacytometer (to obtain cell recovery). A 400 μL aliquot was transferred to a flow cytommetry tube. 10 μL of each Annexin V FITC (for apoptosis) and 7-AAD (for viability) dyes were added, the tube was vortexed and allowed to incubate in the dark for 15 minutes. The solution was diluted to 1 mL with 1× Annexin V Binding Buffer, vortexed and analyzed by flow cytommetry. […] With 2% DMSO, cell viability reached about 45%, and with 10% DMSO, cell viability reached around 78%.

COc1ccc(NC(=O)[C@H](O)[C@@H](O)[C@H](O)[C@H](O)CO)cc1 [(3a), N-(4-methoxyphenyl)-D-gluconamide]
BFU-E ([1]; 11 mM IRI): 20.5 | CFU-G ([1]; 11 mM IRI): 5.5 | CFU-GEMM ([1]; 11 mM IRI): 5.9 | CFU-GM ([1]; 11 mM IRI): 7.4 | CFU-M ([1]; 11 mM IRI): 0.9 | Total Number of Colonies ([1]; 11 mM IRI): 40.4 | Tot. No. Colonies ([1]; 11 mM IRI, UCB Unit 27): 33 and 37 | BFU-E ([1]; 18 mM IRI): 18.0 | CFU-G ([1]; 18 mM IRI): 8.8 | CFU-GEMM ([1]; 18 mM IRI): 2.8 | CFU-GM ([1]; 18 mM IRI): 11.3 | CFU-M ([1]; 18 mM IRI): 0.3 | Total Number of Colonies ([1]; 18 mM IRI): 36.0 | CFU-G ([1]; 27.5 mM IRI): 6.5 | CFU-GEMM ([1]; 27.5 mM IRI): 15.5 | CFU-GM ([1]; 27.5 mM IRI): 14.0 | Total Number of Colonies ([1]; 27.5 mM IRI): 74.5 | fold increase in functionality relative to the control ([1]; 27.5 mM vs DMSO only): 2.4 fold | BFU-E ([1]; 55 mM IRI): 24.5 | CFU-G ([1]; 55 mM IRI): 9.5 | CFU-GEMM ([1]; 55 mM IRI): 6.5 | CFU-GM ([1]; 55 mM IRI): 15.0 | CFU-M ([1]; 55 mM IRI): 1.0 | Total Number of Colonies ([1]; 55 mM IRI): 56.5 | combined results of the CFU assays vs control [1]: performed particularly well | BFU-E [2]: 35.0 | CFU-M [2]: 3.5 | Apoptosis (%) (Tf1-α cells; 0% DMSO): 0% | Cell Viability (%) (Tf1-α cells; 0% DMSO): 0.16% | Apoptosis (%) (Tf1-α cells; 2% DMSO): 1.38% | Cell Viability (%) (Tf1-α cells; 2% DMSO): 74.33% | Apoptosis (%) (Tf1-α cells; 10% DMSO): 2.73% | Cell Viability (%) (Tf1-α cells; 10% DMSO): 95.33%

O=C(Nc1ccccc1F)[C@H](O)[C@@H](O)[C@H](O)[C@H](O)CO [(2a), N-(2-fluorophenyl)-D-gluconamide]
Tot. No. Colonies ([1]; 5 mM IRI, UCB Unit 26): 48 and 66 and 42 | Tot. No. Colonies ([1]; 5 mM IRI, UCB Unit 27): 38 and 34 | combined results of the CFU assays vs control [1]: performed particularly well | Apoptosis (%) (Tf1-α cells; 0% DMSO): 0% | Cell Viability (%) (Tf1-α cells; 0% DMSO): 1.27% | Apoptosis (%) (Tf1-α cells; 2% DMSO): 1.5% | Cell Viability (%) (Tf1-α cells; 2% DMSO): 81.28% | Apoptosis (%) (Tf1-α cells; 10% DMSO): 3.37% | Cell Viability (%) (Tf1-α cells; 10% DMSO): 92.83%

O=C(NCc1c(F)cccc1F)[C@H](O)[C@@H](O)[C@H](O)[C@H](O)CO [(1b), N-(2,6-difluorobenzyl)-D-gluconamide]
BFU-E ([1]; 11 mM IRI): 25.3 | CFU-G ([1]; 11 mM IRI): 4.3 | CFU-GEMM ([1]; 11 mM IRI): 2.4 | CFU-GM ([1]; 11 mM IRI): 9.8 | CFU-M ([1]; 11 mM IRI): 1.5 | Total Number of Colonies ([1]; 11 mM IRI): 41.9 | Tot. No. Colonies ([1]; 11 mM IRI, UCB Unit 27): 31 and 30 | BFU-E ([1]; 18 mM IRI): 24.0 | CFU-G ([1]; 18 mM IRI): 9.5 | CFU-GEMM ([1]; 18 mM IRI): 7.5 | CFU-GM ([1]; 18 mM IRI): 11.0 | CFU-M ([1]; 18 mM IRI): 4.5 | Total Number of Colonies ([1]; 18 mM IRI): 56.5 | fold increase in functionality relative to the control ([1]; 18 mM vs DMSO only): 1.8 fold | CFU-G ([1]; 27.5 mM IRI): 3.0 | CFU-GEMM ([1]; 27.5 mM IRI): 3.5 | CFU-GM ([1]; 27.5 mM IRI): 11.0 | Total Number of Colonies ([1]; 27.5 mM IRI): 48.0 | BFU-E ([1]; 55 mM IRI): 29.5 | CFU-G ([1]; 55 mM IRI): 8.5 | CFU-GEMM ([1]; 55 mM IRI): 1.5 | CFU-GM ([1]; 55 mM IRI): 10.5 | CFU-M ([1]; 55 mM IRI): 0.5 | Total Number of Colonies ([1]; 55 mM IRI): 50.5 | combined results of the CFU assays vs control [1]: performed particularly well | BFU-E [2]: 28.5 | CFU-M [2]: 2.0

O=C(Nc1ccc(Cl)cc1)[C@H](O)[C@@H](O)[C@H](O)[C@H](O)CO [(4a), N-(4-chlorophenyl)-D-gluconamide]
BFU-E ([1]; 5 mM IRI): 22.2 | CFU-G ([1]; 5 mM IRI): 4.2 | CFU-GEMM ([1]; 5 mM IRI): 6.8 | CFU-GM ([1]; 5 mM IRI): 11.5 | CFU-M ([1]; 5 mM IRI): 1.3 | Total Number of Colonies ([1]; 5 mM IRI): 46.0 | Tot. No. Colonies ([1]; 5 mM IRI, UCB Unit 27): 47 and 38 | BFU-E ([1]; 8 mM IRI): 17.0 | CFU-G ([1]; 8 mM IRI): 8.0 | CFU-GEMM ([1]; 8 mM IRI): 4.0 | CFU-GM ([1]; 8 mM IRI): 10.5 | CFU-M ([1]; 8 mM IRI): 0.5 | Total Number of Colonies ([1]; 8 mM IRI): 40.0 | BFU-E ([1]; 12.5 mM IRI): 44.0 | CFU-G ([1]; 12.5 mM IRI): 1.5 | CFU-GEMM ([1]; 12.5 mM IRI): 0.0 | CFU-GM ([1]; 12.5 mM IRI): 8.5 | CFU-M ([1]; 12.5 mM IRI): 3.0 | Total Number of Colonies ([1]; 12.5 mM IRI): 61.0 | BFU-E ([1]; 25 mM IRI): 37.0 | CFU-G ([1]; 25 mM IRI): 11.5 | CFU-GEMM ([1]; 25 mM IRI): 2.0 | CFU-GM ([1]; 25 mM IRI): 10.5 | CFU-M ([1]; 25 mM IRI): 2.0 | Total Number of Colonies ([1]; 25 mM IRI): 63.0 | fold increase in functionality relative to the control ([1]; 25 mM vs DMSO only): 2.0 fold | combined results of the CFU assays vs control [1]: performed particularly well
